Experimental data from patent publication US10183914B2 (BAYER CROPSCIENCE AKTIENGESELLSCHAFT, priority 2014, dated 2019).

What was measured:
[1] = tested on: Zea mays; test: Pre-emergence herbicidal effect and crop plant compatibility; assay type: in vivo; conditions: 3 weeks
In short: (§1)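 Application to covering soil post-sowing: WP or EC, 600–800 L/ha, 0.2% wetting agent. Readout: visual % efficacy after 3 weeks, greenhouse, untreated plants as 0%.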

[2] = tested on: Oryza sativa; test: as above; assay type: in vivo; conditions: 3 weeks
In short: as §1

[3] = tested on: Triticum aestivum (spring); test: as above; assay type: in vivo; conditions: 3 weeks
In short: as §1

[4] = tested on: Veronica persica; test: Pre-emergence herbicidal effect; assay type: in vivo; conditions: 3 weeks
In short: as §1

[5] = tested on: Setaria viridis; test: Pre-emergence herbicidal effect; assay type: in vivo; conditions: 3 weeks
In short: as §1

[6] = tested on: Viola tricolor; test: Pre-emergence herbicidal effect; assay type: in vivo; conditions: 3 weeks
In short: as §1

[7] = tested on: Matricaria inodora; test: Pre-emergence herbicidal effect; assay type: in vivo; conditions: 3 weeks
In short: as §1

[8] = tested on: Stellaria media; test: Pre-emergence herbicidal effect; assay type: in vivo; conditions: 3 weeks
In short: as §1

[9] = tested on: Abutilon theophrasti; test: Pre-emergence herbicidal effect; assay type: in vivo; conditions: 3 weeks
In short: as §1

[10] = tested on: Amaranthus retroflexus; test: Pre-emergence herbicidal effect; assay type: in vivo; conditions: 3 weeks
In short: as §1

[11] = tested on: Polygonum convolvulus; test: Pre-emergence herbicidal effect; assay type: in vivo; conditions: 3 weeks
In short: as §1

[12] = tested on: Echinochloa crus-galli; test: Pre-emergence herbicidal effect; assay type: in vivo; conditions: 3 weeks
In short: as §1

[13] = tested on: Lolium multiflorum; test: Pre-emergence herbicidal effect; assay type: in vivo; conditions: 3 weeks
In short: as §1

[14] = logp (HCOOH), physicochemical characterization
[15] = tested on: Zea mays; test: Post-emergence herbicidal effect and crop plant compatibility; assay type: in vivo; conditions: visual scoring after about 3 weeks
In short: (§2)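 One-leaf-stage seedlings, 2 to 3 weeks old and grown in sandy loam, received an aqueous spray of WP- or EC-formulated compound (600 to 800 L/ha, 0.2% wetting agent) and then stood in the greenhouse for about 3 weeks before visual scoring against controls.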

[16] = tested on: Brassica napus; test: as above; assay type: in vivo; conditions: 80 g/ha, visual scoring after about 3 weeks
In short: as §2

[17] = tested on: Oryza sativa; test: as above; assay type: in vivo; conditions: visual scoring after about 3 weeks
In short: as §2

[18] = tested on: Triticum aestivum (spring); test: as above; assay type: in vivo; conditions: visual scoring after about 3 weeks
In short: as §2

[19] = tested on: Ipomoea purpurea; test: Pre-emergence herbicidal effect; assay type: in vivo; conditions: 320 g/ha, 3 weeks
In short: as §1

[20] = tested on: Alopecurus myosuroides; test: Pre-emergence herbicidal effect; assay type: in vivo; conditions: 3 weeks
In short: as §1

[21] = tested on: Avena fatua; test: Pre-emergence herbicidal effect; assay type: in vivo; conditions: 320 g/ha, 3 weeks
In short: as §1

[22] = tested on: Setaria viridis; test: Post-emergence herbicidal effect; assay type: in vivo; conditions: 320 g/ha (dose by row order of upper half), scoring after about 3 weeks
In short: as §2

[23] = tested on: Ipomoea purpurea; test: Post-emergence herbicidal effect; assay type: in vivo; conditions: scoring after about 3 weeks
In short: as §2

[24] = tested on: Echinochloa crus-galli; test: Post-emergence herbicidal effect; assay type: in vivo; conditions: visual scoring after about 3 weeks
In short: as §2

[25] = tested on: Alopecurus myosuroides; test: Post-emergence herbicidal effect; assay type: in vivo; conditions: 320 g/ha, visual scoring after about 3 weeks
In short: as §2

[26] = tested on: Lolium multiflorum; test: Post-emergence herbicidal effect; assay type: in vivo; conditions: 320 g/ha, visual scoring after about 3 weeks
In short: as §2

[27] = tested on: Avena fatua; test: Post-emergence herbicidal effect; assay type: in vivo; conditions: 320 g/ha, visual scoring after about 3 weeks
In short: as §2

[28] = tested on: Cyperus esculentus; test: Pre-emergence herbicidal effect; assay type: in vivo; conditions: 3 weeks
In short: as §1

[29] = 320 g/ha (dose by row order of upper half)

Cc1ccc2c(c1)[C@H](Nc1ncc3c(n1)CC(c1ccc(F)cc1)CC3=O)[C@@H](C)C2 (stereo partly shown) [2.52]
ZEAMX herbicidal activity in percent ([1]; 80 g/ha): 0%
ZEAMX herbicidal activity in percent ([1]; 320 g/ha): 10%
ORYSA herbicidal activity in percent ([2]; 80 g/ha): 0%
ORYSA herbicidal activity in percent ([2]; 320 g/ha): 20%
TRZAS herbicidal activity in percent ([3]; 80 g/ha): 0%
TRZAS herbicidal activity in percent ([3]; 320 g/ha): 30%
VERPE herbicidal activity in percent ([4]; 80 g/ha): 90%
VERPE herbicidal activity in percent ([4]; 320 g/ha): 100%
SETVI herbicidal activity in percent ([5]; 320 g/ha): 70%
VIOTR herbicidal activity in percent ([6]; 80 g/ha): 100%
VIOTR herbicidal activity in percent ([6]; 320 g/ha): 100%
MATIN herbicidal activity in percent ([7]; 320 g/ha): 100%
STEME herbicidal activity in percent ([8]; 320 g/ha): 100%
ABUTH herbicidal activity in percent ([9]; 320 g/ha): 0%
AMARE herbicidal activity in percent ([10]; 320 g/ha): 100%
POLCO herbicidal activity in percent ([11]; 320 g/ha): 60%
ECHCG herbicidal activity in percent ([12]; 320 g/ha): 100%
LOLMU herbicidal activity in percent ([13]; 320 g/ha): 90%
logp (HCOOH) [14]: oily; logp (HCOOH): 4.87; 1H-NMR (CDCl3, 400 MHZ, δ in ppm): 1.25 (t, 3H, CH3);
post-emergence efficacy ZEAMX ([15]; 80 g/ha): 0%
post-emergence efficacy ZEAMX ([15]; 320 g/ha): 0%
post-emergence efficacy BRSNW [16]: 20%
post-emergence efficacy ORYSA ([17]; 80 g/ha): 0%
post-emergence efficacy ORYSA ([17]; 320 g/ha): 0%
post-emergence efficacy TRZAS ([18]; 80 g/ha): 0%
post-emergence efficacy TRZAS ([18]; 320 g/ha): 0%

Cc1ccc2c(c1)[C@H](Nc1ncc3c(n1)CC(C)(C)CC3=O)[C@@H](C)C2 [2.45]
ZEAMX herbicidal activity in percent ([1]; 80 g/ha): 10%
ORYSA herbicidal activity in percent ([2]; 80 g/ha): 0%
ORYSA herbicidal activity in percent ([2]; 320 g/ha): 10%
VERPE herbicidal activity in percent ([4]; 80 g/ha): 100%
VERPE herbicidal activity in percent ([4]; 320 g/ha): 100%
SETVI herbicidal activity in percent ([5]; 80 g/ha): 100%
SETVI herbicidal activity in percent ([5]; 320 g/ha): 100%
VIOTR herbicidal activity in percent ([6]; 80 g/ha): 100%
VIOTR herbicidal activity in percent ([6]; 320 g/ha): 100%
MATIN herbicidal activity in percent ([7]; 80 g/ha): 90%
MATIN herbicidal activity in percent ([7]; 320 g/ha): 90%
PHBPU herbicidal activity in percent [19]: 90%
STEME herbicidal activity in percent ([8]; 80 g/ha): 100%
STEME herbicidal activity in percent ([8]; 320 g/ha): 100%
ABUTH herbicidal activity in percent ([9]; 80 g/ha): 80%
ABUTH herbicidal activity in percent ([9]; 320 g/ha): 80%
AMARE herbicidal activity in percent ([10]; 80 g/ha): 100%
AMARE herbicidal activity in percent ([10]; 320 g/ha): 100%
POLCO herbicidal activity in percent ([11]; 80 g/ha): 100%
POLCO herbicidal activity in percent ([11]; 320 g/ha): 100%
ECHCG herbicidal activity in percent ([12]; 80 g/ha): 100%
ECHCG herbicidal activity in percent ([12]; 320 g/ha): 100%
ALOMY herbicidal activity in percent ([20]; 320 g/ha): 90%
LOLMU herbicidal activity in percent ([13]; 80 g/ha): 80%
LOLMU herbicidal activity in percent ([13]; 320 g/ha): 100%
AVEFA herbicidal activity in percent [21]: 80%
logp (HCOOH) [14]: oily; logp (HCOOH): 4.23; 1H-NMR (CDCl3, 400 MHZ, δ in ppm): 1.10 (m, 6H,
post-emergence efficacy SETVI [22]: 90%
post-emergence efficacy PHBPU ([23]; 80 g/ha (dose by row order of upper half)): 100%
post-emergence efficacy PHBPU [23, 29]: 100%
post-emergence efficacy ECHCG ([24]; 80 g/ha): 100%
post-emergence efficacy ECHCG ([24]; 320 g/ha): 100%
post-emergence efficacy ALOMY [25]: 80%
post-emergence efficacy LOLMU [26]: 100%
post-emergence efficacy AVEFA [27]: 80%
post-emergence efficacy ZEAMX ([15]; 80 g/ha): 0%
post-emergence efficacy ZEAMX ([15]; 320 g/ha): 0%
post-emergence efficacy ORYSA ([17]; 80 g/ha): 20%
post-emergence efficacy TRZAS ([18]; 80 g/ha): 10%
post-emergence efficacy TRZAS ([18]; 320 g/ha): 10%

CC1CC(=O)c2cnc(N[C@@H]3CCCc4ccccc43)nc2C1 (stereo partly shown) [2.26]
ZEAMX herbicidal activity in percent ([1]; 80 g/ha): 0%
TRZAS herbicidal activity in percent ([3]; 80 g/ha): 0%
VERPE herbicidal activity in percent ([4]; 80 g/ha): 80%
VERPE herbicidal activity in percent ([4]; 320 g/ha): 100%
SETVI herbicidal activity in percent ([5]; 320 g/ha): 90%
VIOTR herbicidal activity in percent ([6]; 80 g/ha): 90%
VIOTR herbicidal activity in percent ([6]; 320 g/ha): 100%
MATIN herbicidal activity in percent ([7]; 320 g/ha): 100%
STEME herbicidal activity in percent ([8]; 80 g/ha): 100%
STEME herbicidal activity in percent ([8]; 320 g/ha): 100%
AMARE herbicidal activity in percent ([10]; 80 g/ha): 100%
AMARE herbicidal activity in percent ([10]; 320 g/ha): 100%
POLCO herbicidal activity in percent ([11]; 320 g/ha): 100%
ECHCG herbicidal activity in percent ([12]; 80 g/ha): 80%
ECHCG herbicidal activity in percent ([12]; 320 g/ha): 100%
ALOMY herbicidal activity in percent ([20]; 320 g/ha): 90%
LOLMU herbicidal activity in percent ([13]; 320 g/ha): 100%
AVEFA herbicidal activity in percent [21]: 90%
logp (HCOOH) [14]: oily; logp (HCOOH): 3.45; 1H-NMR (CDCl3, 400 MHZ, δ in ppm): 1.15 (m, 3H, CH3);
post-emergence efficacy ZEAMX ([15]; 80 g/ha): 0%
post-emergence efficacy ZEAMX ([15]; 320 g/ha): 0%
post-emergence efficacy BRSNW [16]: 20%
post-emergence efficacy ORYSA ([17]; 80 g/ha): 0%
post-emergence efficacy ORYSA ([17]; 320 g/ha): 0%
post-emergence efficacy TRZAS ([18]; 80 g/ha): 0%
post-emergence efficacy TRZAS ([18]; 320 g/ha): 0%

CC(=O)c1cnc(N[C@H]2c3cc(C)ccc3C[C@@H]2C)nc1C [1.26]
ZEAMX herbicidal activity in percent ([1]; 80 g/ha): 0%
ZEAMX herbicidal activity in percent ([1]; 320 g/ha): 0%
TRZAS herbicidal activity in percent ([3]; 80 g/ha): 0%
VERPE herbicidal activity in percent ([4]; 80 g/ha): 100%
VERPE herbicidal activity in percent ([4]; 320 g/ha): 100%
SETVI herbicidal activity in percent ([5]; 80 g/ha): 100%
SETVI herbicidal activity in percent ([5]; 320 g/ha): 100%
VIOTR herbicidal activity in percent ([6]; 80 g/ha): 100%
VIOTR herbicidal activity in percent ([6]; 320 g/ha): 100%
MATIN herbicidal activity in percent ([7]; 80 g/ha): 100%
MATIN herbicidal activity in percent ([7]; 320 g/ha): 100%
STEME herbicidal activity in percent ([8]; 80 g/ha): 100%
STEME herbicidal activity in percent ([8]; 320 g/ha): 100%
AMARE herbicidal activity in percent ([10]; 80 g/ha): 100%
AMARE herbicidal activity in percent ([10]; 320 g/ha): 100%
POLCO herbicidal activity in percent ([11]; 80 g/ha): 100%
POLCO herbicidal activity in percent ([11]; 320 g/ha): 100%
ECHCG herbicidal activity in percent ([12]; 80 g/ha): 100%
ECHCG herbicidal activity in percent ([12]; 320 g/ha): 100%
ALOMY herbicidal activity in percent ([20]; 80 g/ha): 90%
ALOMY herbicidal activity in percent ([20]; 320 g/ha): 90%
CYPES herbicidal activity in percent ([28]; 80 g/ha): 80%
CYPES herbicidal activity in percent ([28]; 320 g/ha): 80%
LOLMU herbicidal activity in percent ([13]; 80 g/ha): 80%
LOLMU herbicidal activity in percent ([13]; 320 g/ha): 100%
logp (HCOOH) [14]: solid; logp (HCOOH): 3.56; 1H-NMR (CDCl3, 400 MHZ, δ in ppm): 1.20 (d, 3H,
post-emergence efficacy SETVI [22]: 90%
post-emergence efficacy PHBPU [23, 29]: 90%
post-emergence efficacy ECHCG ([24]; 80 g/ha): 90%
post-emergence efficacy ECHCG ([24]; 320 g/ha): 100%
post-emergence efficacy ALOMY [25]: 90%
post-emergence efficacy LOLMU [26]: 80%
post-emergence efficacy AVEFA [27]: 80%
post-emergence efficacy ZEAMX ([15]; 80 g/ha): 0%
post-emergence efficacy ZEAMX ([15]; 320 g/ha): 0%
post-emergence efficacy ORYSA ([17]; 80 g/ha): 0%
post-emergence efficacy ORYSA ([17]; 320 g/ha): 0%
post-emergence efficacy TRZAS ([18]; 80 g/ha): 0%
